Source: PubChem BioAssay AID1259407 (Chemical Carcinogenesis Research Information System (CCRIS), 2018)
The source made the active and inactive calls. The rule behind the calls is not given here.

Test system: CCRIS mutagenicity, Ames/micronucleus/aberration tests
Test: CCRIS mutagenicity studies
[1] = Test System: AMES SALMONELLA TYPHIMURIUM, Strain/Indicator: TA97, Metabolic Activation: HAMSTER, LIVER, S-9, AROCLOR 1254 (10 OR 30%), Method: PREINCUBATION
[2] = Test System: AMES SALMONELLA TYPHIMURIUM, Strain/Indicator: TA97, Metabolic Activation: NONE, Method: PREINCUBATION
[3] = Test System: AMES SALMONELLA TYPHIMURIUM, Strain/Indicator: TA97, Metabolic Activation: RAT, LIVER, S-9, AROCLOR 1254 (10 OR 30%), Method: PREINCUBATION
[4] = Test System: AMES SALMONELLA TYPHIMURIUM, Strain/Indicator: TA98, Metabolic Activation: HAMSTER, LIVER, S-9, AROCLOR 1254 (10 OR 30%), Method: PREINCUBATION
[5] = Test System: AMES SALMONELLA TYPHIMURIUM, Strain/Indicator: TA98, Metabolic Activation: NONE, Method: PREINCUBATION
[6] = Test System: AMES SALMONELLA TYPHIMURIUM, Strain/Indicator: TA98, Metabolic Activation: RAT, LIVER, S-9, AROCLOR 1254 (10 OR 30%), Method: PREINCUBATION
[7] = Test System: AMES SALMONELLA TYPHIMURIUM, Strain/Indicator: TA100, Metabolic Activation: HAMSTER, LIVER, S-9, AROCLOR 1254 (10 OR 30%), Method: PREINCUBATION
[8] = Test System: AMES SALMONELLA TYPHIMURIUM, Strain/Indicator: TA100, Metabolic Activation: NONE, Method: PREINCUBATION
[9] = Test System: AMES SALMONELLA TYPHIMURIUM, Strain/Indicator: TA100, Metabolic Activation: RAT, LIVER, S-9, AROCLOR 1254 (10 OR 30%), Method: PREINCUBATION
[10] = Test System: AMES SALMONELLA TYPHIMURIUM, Strain/Indicator: TA1535, Metabolic Activation: HAMSTER, LIVER, S-9, AROCLOR 1254 (10 OR 30%), Method: PREINCUBATION
[11] = Test System: AMES SALMONELLA TYPHIMURIUM, Strain/Indicator: TA1535, Metabolic Activation: NONE, Method: PREINCUBATION
[12] = Test System: AMES SALMONELLA TYPHIMURIUM, Strain/Indicator: TA1535, Metabolic Activation: RAT, LIVER, S-9, AROCLOR 1254 (10 OR 30%), Method: PREINCUBATION

## C[N+](C)(C)Cc1ccccc1
[1]
  mutagenic call: inactive; negative
[2]
  mutagenic call: inactive; negative
[3]
  mutagenic call: inactive; negative
[4]
  mutagenic call: inactive; negative
[5]
  mutagenic call: inactive; negative
[6]
  mutagenic call: inactive; negative
[7]
  mutagenic call: inactive; negative
[8]
  mutagenic call: inactive; negative
[9]
  mutagenic call: inactive; negative
[10]
  mutagenic call: inactive; negative
[11]
  mutagenic call: inactive; negative
[12]
  mutagenic call: inactive; negative

## N#CCCCCC#N
[1]
  mutagenic call: inactive; negative
[2]
  mutagenic call: inactive; negative
[3]
  mutagenic call: inactive; negative
[4]
  mutagenic call: inactive; negative
[5]
  mutagenic call: inactive; negative
[6]
  mutagenic call: inactive; negative
[7]
  mutagenic call: inactive; negative
[8]
  mutagenic call: inactive; negative
[9]
  mutagenic call: inactive; negative
[10]
  mutagenic call: inactive; negative
[11]
  mutagenic call: inactive; negative
[12]
  mutagenic call: inactive; negative

## CC/C(C)=N\O
Test System: AMES SALMONELLA TYPHIMURIUM, Strain/Indicator: TA97, Metabolic Activation: HAMSTER LIVER S-9, AROCLOR 1254, 30%, Method: PREINCUBATION
  mutagenic call: inactive; negative
[2]
  mutagenic call: inactive; negative
Test System: AMES SALMONELLA TYPHIMURIUM, Strain/Indicator: TA97, Metabolic Activation: RAT LIVER S-9, AROCLOR 1254, 30%, Method: PREINCUBATION
  mutagenic call: inactive; negative
Test System: AMES SALMONELLA TYPHIMURIUM, Strain/Indicator: TA98, Metabolic Activation: HAMSTER LIVER S-9, AROCLOR 1254, 30%, Method: DESICCATOR
  mutagenic call: inactive; negative
Test System: AMES SALMONELLA TYPHIMURIUM, Strain/Indicator: TA98, Metabolic Activation: HAMSTER LIVER S-9, AROCLOR 1254, 30%, Method: PREINCUBATION
  mutagenic call: inactive; negative
Test System: AMES SALMONELLA TYPHIMURIUM, Strain/Indicator: TA98, Metabolic Activation: HAMSTER, LIVER, S-9, AROCLOR 1254, Method: STANDARD PLATE
  mutagenic call: inactive; negative
Test System: AMES SALMONELLA TYPHIMURIUM, Strain/Indicator: TA98, Metabolic Activation: NONE, Method: DESICCATOR
  mutagenic call: inactive; negative
[5]
  mutagenic call: inactive; negative
Test System: AMES SALMONELLA TYPHIMURIUM, Strain/Indicator: TA98, Metabolic Activation: NONE, Method: STANDARD PLATE
  mutagenic call: inactive; negative
Test System: AMES SALMONELLA TYPHIMURIUM, Strain/Indicator: TA98, Metabolic Activation: RAT LIVER S-9, AROCLOR 1254, 30%, Method: DESICCATOR
  mutagenic call: inactive; negative
Test System: AMES SALMONELLA TYPHIMURIUM, Strain/Indicator: TA98, Metabolic Activation: RAT LIVER S-9, AROCLOR 1254, 30%, Method: PREINCUBATION
  mutagenic call: inactive; negative
Test System: AMES SALMONELLA TYPHIMURIUM, Strain/Indicator: TA98, Metabolic Activation: RAT, LIVER, S-9, AROCLOR 1254, Method: STANDARD PLATE
  mutagenic call: inactive; negative
Test System: AMES SALMONELLA TYPHIMURIUM, Strain/Indicator: TA100, Metabolic Activation: HAMSTER LIVER S-9, AROCLOR 1254, 30%, Method: DESICCATOR
  mutagenic call: inactive; negative
Test System: AMES SALMONELLA TYPHIMURIUM, Strain/Indicator: TA100, Metabolic Activation: HAMSTER LIVER S-9, AROCLOR 1254, 30%, Method: PREINCUBATION
  mutagenic call: inactive; negative
Test System: AMES SALMONELLA TYPHIMURIUM, Strain/Indicator: TA100, Metabolic Activation: HAMSTER, LIVER, S-9, AROCLOR 1254, Method: STANDARD PLATE
  mutagenic call: inactive; negative
Test System: AMES SALMONELLA TYPHIMURIUM, Strain/Indicator: TA100, Metabolic Activation: NONE, Method: DESICCATOR
  mutagenic call: inactive; negative
[8]
  mutagenic call: inactive; negative
Test System: AMES SALMONELLA TYPHIMURIUM, Strain/Indicator: TA100, Metabolic Activation: NONE, Method: STANDARD PLATE
  mutagenic call: inactive; negative
Test System: AMES SALMONELLA TYPHIMURIUM, Strain/Indicator: TA100, Metabolic Activation: RAT LIVER S-9, AROCLOR 1254, 30%, Method: DESICCATOR
  mutagenic call: inactive; negative
Test System: AMES SALMONELLA TYPHIMURIUM, Strain/Indicator: TA100, Metabolic Activation: RAT LIVER S-9, AROCLOR 1254, 30%, Method: PREINCUBATION
  mutagenic call: inactive; negative
Test System: AMES SALMONELLA TYPHIMURIUM, Strain/Indicator: TA100, Metabolic Activation: RAT, LIVER, S-9, AROCLOR 1254, Method: STANDARD PLATE
  mutagenic call: inactive; negative
Test System: AMES SALMONELLA TYPHIMURIUM, Strain/Indicator: TA1535, Metabolic Activation: HAMSTER LIVER S-9, AROCLOR 1254, 30%, Method: PREINCUBATION
  mutagenic call: active; positive
Test System: AMES SALMONELLA TYPHIMURIUM, Strain/Indicator: TA1535, Metabolic Activation: HAMSTER, LIVER, S-9, AROCLOR 1254, Method: STANDARD PLATE
  mutagenic call: inactive; negative
[11]
  mutagenic call: inactive; negative
Test System: AMES SALMONELLA TYPHIMURIUM, Strain/Indicator: TA1535, Metabolic Activation: NONE, Method: STANDARD PLATE
  mutagenic call: inactive; negative
Test System: AMES SALMONELLA TYPHIMURIUM, Strain/Indicator: TA1535, Metabolic Activation: RAT LIVER S-9, AROCLOR 1254, 30%, Method: PREINCUBATION
  mutagenic call: inactive; negative
Test System: AMES SALMONELLA TYPHIMURIUM, Strain/Indicator: TA1535, Metabolic Activation: RAT, LIVER, S-9, AROCLOR 1254, Method: STANDARD PLATE
  mutagenic call: inactive; negative
Test System: AMES SALMONELLA TYPHIMURIUM, Strain/Indicator: TA1537, Metabolic Activation: HAMSTER, LIVER, S-9, AROCLOR 1254, Method: STANDARD PLATE
  mutagenic call: inactive; negative
Test System: AMES SALMONELLA TYPHIMURIUM, Strain/Indicator: TA1537, Metabolic Activation: NONE, Method: STANDARD PLATE
  mutagenic call: inactive; negative
Test System: AMES SALMONELLA TYPHIMURIUM, Strain/Indicator: TA1537, Metabolic Activation: RAT, LIVER, S-9, AROCLOR 1254, Method: STANDARD PLATE
  mutagenic call: inactive; negative
Test System: AMES SALMONELLA TYPHIMURIUM, Strain/Indicator: TA1538, Metabolic Activation: HAMSTER, LIVER, S-9, AROCLOR 1254, Method: STANDARD PLATE
  mutagenic call: inactive; negative
Test System: AMES SALMONELLA TYPHIMURIUM, Strain/Indicator: TA1538, Metabolic Activation: NONE, Method: STANDARD PLATE
  mutagenic call: inactive; negative
Test System: AMES SALMONELLA TYPHIMURIUM, Strain/Indicator: TA1538, Metabolic Activation: RAT, LIVER, S-9, AROCLOR 1254, Method: STANDARD PLATE
  mutagenic call: inactive; negative
Test System: MOUSE LYMPHOMA, Strain/Indicator: L5178Y (TK+/TK-), Metabolic Activation: NONE, Method: SUSPENSION/PLATE
  mutagenic call: active; positive. reevaluation of results: positive
Test System: MOUSE LYMPHOMA, Strain/Indicator: L5178Y (TK+/TK-), Metabolic Activation: RAT, LIVER, S-9, AROCLOR 1254, Method: SUSPENSION/PLATE
  mutagenic call: inactive; negative. reevaluation of results: negative
